Several values for one entry are separate records, joined by “and”; a condition that tells them apart may be missing. Identical values can stand only once. Like-named read-outs stand apart in the source and are kept apart here.
Columns and labels:
[1] = parameters: method as in PMID 36959150; conditions: cited from earlier work
[2] = Etodolac pharmacokinetic profile after a single dose, plasma LC-MS/MS, non-compartmental; assay type: in vivo, human
Description: The analytical method used to calculate the pharmacokinetic parameters was validated according to Resolution No. 27/2012 of the Agência Nacional de Vigilância Sanitária (ANVISA). In this study, an LC-MS/MS system was used to quantify ETO. Chromatographic separations were performed using an LC-20AD analytical pump (Shimadzu, Kyoto, Japan) and a SIL-20A HT autosampler (Shimadzu, Kyoto, Japan), coupled to a Quattro Micro (Micromass, Newcastle, UK) system for triple quadrupole mass spectrometry analyses with an electrospray ionization (ESI) source (Waters, Newcastle, UK). The targeted analysis for ETO was detected by a multiple reaction monitoring (MRM) transition of 286 > 242, and mefenamic acid (Internal Standard) was detected by an MRM transition of 240 > 196 in negative acquisition mode. Data were collected using MassLynx 4.1 (Waters, Newcastle, UK). Further information on the validation method can be found in Supplementary Materials and Methods. WinNonLin 8.3 software (Pharsight, New Jersey, USA) was used to calculate pharmacokinetic parameters using non-compartmental statistics. […]
Table S3. Pharmacokinetics parameters. Pharmacokinetics parameters were calculated for each participant using the concentration across time data. […]
1. Volunteers and Study Design
The present study was nested in a single-dose, open-label, randomized pharmaco-bioequivalence study performed under biosafety and ethical standards. The reference formulation was an etodolac controlled-release coated tablet of 500 mg Flancox® with the administration of one single-dose tablet.
The volunteers were hospitalized at 7:00 p.m. and had supper before 9:00 p.m. After an overnight fast, a speciﬁc high-calorie diet was administered 30 minutes before taking the medication. They received (at ∼7:00 a.m.) a tablet of 500 mg of etodolac with 200 mL of water. Lunch: 4 hours after taking the medication. Afternoon snack: 8 hours after taking the medication. Dinner: 10 hours after […]
At 2 h before and 6, 8, and 12 h after the dose administration, vital signs were checked. The […] period was 24 h, during which period, blood samples (5 mL) from a suitable antecubital vein were collected, post-dosing via an indwelling catheter, into ethylenediaminetetraacetic acid […]
for 10 min at 4°C, and the plasma was stored at -70°C until assayed. Samples were handled under yellow light due to the photosensitivity of the drug.
2. Determination of Pharmacokinetic Proﬁle by LC-MS/MS
Chromatographic separations were performed in an LC-20AD analytical pump and SIL-20A HT autosampler from Shimadzu. The stationary phase employed an Agilent Polaris 5 µm C18-A 50 x […]
2,0mm column (Phenomenex). The mobile phase consisted of a solution of acetonitrile and 5 mM ammonium acetate, ﬂowing at 0.3 mL/min in proportion (8:2). The autosampler was maintained at 22°C, with an injection volume of 5 µl and 2.5-minute duration. Mass spectrometry was conducted on a Quattro Micro mass spectrometer from Micromass, equipped with an electrospray ionization (ESI) source. While operating in negative ionization mode with nitrogen as the desolvation gas, ESI source parameters were set as follows: source temperature of 100°C, desolvation temperature of 450°C, desolvation ﬂow of 800 L h-1, and capillary voltage of 3,50 kV. Etodolac was detected by a multiple reaction monitoring (MRM) transition of 286 > 242 using a cone voltage of 30 eV, and mefenamic acid was detected by an MRM transition of 240 > 196 using a cone voltage of 30 eV. Data was acquired using MassLynx 4.1.
2.1. Preparation of Standards and Quality Controls
Etodolac stock solution (108.5 µg/mL) was prepared in methanol and diluted with H2O to obtain the corrected stock solution (100 µg/mL) for the spiking calibration curve and quality controls (QC) samples. QC samples were prepared in the following levels: low, 0,6 µg/mL (LQC); medium, 50 µg/mL (MQC); high, 75 ug/mL (HQC); and a dilution, 42.5 µg/mL (DQC), calculated by taking the […]

[3] = Maximum of 37 participants, single dose 500 mg
[4] = Minimum of 37 participants, single dose 500 mg
[5] = individual participants P1-P37, single dose 500 mg

In the case of `CCc1cccc2c3c([nH]c12)C(CC)(CC(=O)O)OCC3` (stereo not drawn) [Etodolac], the solubility [1] is listed as “poor solubility”, the “Biopharmaceutics Classification System class” value ([1]; dissolution rate-dependent absorption) is listed as “BCS class II” and the AUC0-t [2, 3] is listed as 480.52 µg·h/mL. For the same compound, the Cmax [2, 3] was 59.07 µg/mL, the Kel [2, 3] was 0.15 h⁻¹ and the T1/2 [2, 3] was 20.09 h. The Tmax [2, 3] was 5.00 h, the AUC0-t [2, 4] was 94.14 µg·h/mL and the Cmax [2, 4] was 18.69 µg/mL. It also gave a Kel [2, 4] of 0.035 h⁻¹, a T1/2 [2, 4] of 4.76 h and a Tmax [2, 4] of 0.75 h. It also gave an AUC0-t ([2]; both sexes, human, oral, 500 mg, Mean of 37 participants, single dose 500 mg, read-out: AUC0-t) of 203 µg·h/mL, a Cmax ([2]; both sexes, human, oral, 500 mg, Mean of 37 participants, single dose 500 mg, read-out: Cmax) of 35.5 µg/mL and a k el ([2]; both sexes, human, oral, 500 mg, Mean of 37 participants, single dose 500 mg, read-out: Kel (converted)) of 2.5e-05 s⁻¹. It also gave a half-life ([2]; both sexes, human, oral, 500 mg, Mean of 37 participants, single dose 500 mg, read-out: T1/2 (converted)) of 8.2 h, a Tmax ([2]; both sexes, human, oral, 500 mg, Mean of 37 participants, single dose 500 mg, read-out: Tmax) of 2.24 h and a k el ([2]; both sexes, human, oral, 500 mg, overall mean (SD), 37 healthy volunteers, single dose Flancox 500 mg tablet after high-calorie diet, read-out: elimination rate constant (Kel) (converted)) of 2.5e-05 s⁻¹. It also gave a half-life ([2]; both sexes, human, oral, 500 mg, overall mean (SD), 37 healthy volunteers, single dose Flancox 500 mg tablet after high-calorie diet, read-out: half-life (T1/2) (converted)) of 8.2 h, a Cmax ([2]; both sexes, human, oral, 500 mg, overall mean (SD), 37 healthy volunteers, single dose Flancox 500 mg tablet after high-calorie diet, read-out: maximum concentration (Cmax)) of 35.5 µg/mL and a Tmax ([2]; both sexes, human, oral, 500 mg, overall mean (SD), 37 healthy volunteers, single dose Flancox 500 mg tablet after high-calorie diet, read-out: time to maximum concentration (Tmax)) of 2.24 h. The AUC0-t ([2]; both sexes, human, oral, overall mean (SD), 37 healthy volunteers, single dose Flancox 500 mg tablet after high-calorie diet, read-out: area under the curve from time zero to time t (AUC0-t)) was 203 µg·h/mL, the Cmax [2, 5] was 45.68 µg/mL and the Tmax [2, 5] was 2.25 h and 2.75 h and 1.50 h and 3.00 h and 1.25 h and 3.67 h and 4.00 h and 3.33 h and 2.50 h and 1.00 h and 2.00 h and 1.75 h and 5.00 h and 0.75 h.

From publication PMC11768370, “Etodolac Single Dose Metabolic Profile Elucidation: Pharmacokinetics and Adverse Events in Healthy Volunteers” (Pharmaceuticals, 2025)
